Experimental data as given in US8623661B2, “Iron chelating agent, method for producing same, method for determining amount of iron ions and method for trapping iron ions” (National University Corporation Asahikawa Medical College, priority 2008, dated 2014).

Tested on: iron nitrilotriacetate complex (Fe-NTA)
Assay: Evaluation C: chelating ability in MOPS/acetonitrile solvent, Fe-NTA solution
Format: binding
Experimental: Evaluation was carried out by the following evaluation method C as to whether or not the iron chelating agent according to Examples 1 to 3 had chelating ability with iron in 3-morpholinopropanesulfonic acid (C7H15NO4S;MOPS) and acetonitrile solution as solvents used in high performance liquid chromatography (HPLC).
2.09 g of morpholinopropanesulfonic acid (C7H15NO4S; FW=209.26, Code 341-01801, Lot PX013, manufactured by Dojindo/Wako Corporation) was added to a 100 mL Erlenmeyer flask, 80 mL of ultrapure water (pure water produced by an ultrapure water production system manufactured by Millipore Corporation (Milli-Q); “Milli-Q water”) was added thereto and dissolved [pH 4.15 (24.4° C.)]. To this solution, 1N sodium hydroxide solution (1 mol/1 sodium hydroxide solution, Code 192-02175, Lot SEP7274, manufactured by Wako Pure Chemicals Industries) was added in 100 μl portions, the pH was adjusted to 7.0 and further Milli-Q water was made up to 100 mL in a measuring cylinder, whereby 100 mL of MOPS solution (pH 6.99) was prepared.
An iron chelating agent solution having an iron chelating agent concentration of 50 mM was prepared with respect to the iron chelating agent according to Examples 1 to 3, in the same manner as the preparation method of the iron chelating solution in evaluation A of the iron chelating agent.
Further, 100 mM of MOPS solution (pH6.99) prepared by the preparation method of the MOPS solution was used.
Furthermore, a stock solution of acetonitrile (C2H3N, FW=41.05, Code 347-06641, Lot WPI96, manufactured by Dojindo/Wako corporation) was used.
13.8 mL of Milli-Q water was taken in a 50 mL conical tube, 1.2 mL of each of the iron chelating agent solutions (Fe-Ser•Na (50 mM), Fe-His•Na (50 mM), Fe-Glu•Na (50 mM)) according to the iron chelating agents of Examples 1 to 3 was added, 1.0 mL of 100 mM MOPS solution was added thereto, and a further 4.0 mL of acetonitrile solution was added to produce an iron chelating solution using MOPS. The iron chelating agent solutions using MOPS and iron chelating agent according to Examples 1 to 3 were defined respectively as Fe-Ser•Na (MOPS solution)” (iron chelating agent according to
Example 1), “Fe-His•Na (MOPS solution)” (iron chelating agent according to Example 2), and “Fe-Glu•Na(MOPS solution)” (iron chelating agent according to Example 3).
Further, iron nitrilotriacetate complex solution (“Fe-NTA solution (20 mM)”) having a concentration of iron ions of 20 mM and iron nitrilotriacetate complex solution (“Fe-NTA solution (2 mM)”) having a concentration of iron ions of 2 mM were prepared, in the same manner as the preparation method of iron nitrilotriacetate complex solution in evaluation B of the iron chelating agent.
Further, Fe-NTA solution (20 mM) was added to and mixed with each of the iron chelating agent solutions [Fe-Ser•Na (MOPS solution), Fe-His•Na (MOPS solution), Fe-Glu•Na (MOPS solution)] using MOPS. […] Further, Fe-NTA solution (2 mM) was added and mixed thereto as described above.

With O=C(O)C(CO)NCc1ccccc1O (centres unmarked) [Example 1, o-[(1-carboxy-2-hydroxyethyl)-amino-methyl]-phenol] the “colour of the solution after mixing” value (Fe-NTA solution (2 mM) added to chelating agent MOPS solution (MOPS, acetonitrile)) was “dark brown-colored” and the “colour of the solution after mixing” value (Fe-NTA solution (20 mM) added to chelating agent MOPS solution (MOPS, acetonitrile)) was “dark brown-colored”.
